# Results: patent US8334255B2, “Peptide and treatment for HIV-1 infection” (Thomas Jefferson University, priority 2006, dated 2012)
# Primed or numbered codes have the meaning given here. Ends that are not written are not given here. FITC′ = not defined here
# Assays:
# [1] = tested on: HIV-1NL4-3 Viruses; experiment: Viral infectivity assay in human T lymphoblastoid H9 cell line, p24 antigen ELISA; type: cell-based; conditions: H9 cells, MOI 0.01, peptide 50 μM, compared to untreated cells or control peptide
# Procedure: A viral infectivity assay was performed in the presence or absence of the peptides of amino acid sequence SEQ ID NO:2 and SEQ ID NO:36, and the control peptide of amino acid sequence SEQ ID NO:35 using HIV-1NL4-3 viruses in H9 cells and assaying HIV-1 p24 antigen. The procedure was performed essentially as described by B. Yang, et al., J. Bio. Chem., 2003; 278(8), 6596-602, which describes the method as follows. H9 cells (1×10^6) are mixed with HIV-1NL4-3 viruses at a multiplicity of infection of 0.01. After incubation at 37° C. for 5 hours, the excess viruses were removed, and the cells are cultured in the presence of RPMI 1640 medium plus […] fetal bovine serum with or without the peptides at a concentration of 50 μM. Every 3-4 days the supernatants are harvested and refreshed. The effects of the peptides on viral infectivity are monitored by detecting the HIV-1 p24 antigen level in the cell culture supernatant via ELISA.
# [2] = tested on: HIV-1IIIB virus; experiment: Low multiplicity of infection acute infection assay in MT-2 cells, reverse transcriptase assay; conditions: for delay of the onset of virus production: MT-2 cells, RT assay
# [3] = tested on: H9 and MT-2 cells; experiment: Cellular uptake and intracellular localization of FITC-tagged peptide by fluorescence microscopy; type: cell-based
# Procedure: The peptide of amino acid sequence SEQ ID NO:2 was synthesized with a C-terminal fluoroscein isothiocyanate (FTIC) tag. The FITC tag enables fluorescence microscopy of living cells in order to evaluate cellular uptake and intracellular localization of the peptide. Cultures of H9 and MT-2 cells were grown in media as recommended by the American Tissue Culture Collection (ATCC) and each culture was treated once in culture with of the FTIC-tagged peptide of the amino acid sequence SEQ ID NO:2. The cells were then photographed in the culture dish with an inverted fluorescence microscopy at various time points. […] The intracellular distribution was both punctate and diffuse in the cytoplasm but little or no FTIC-tagged peptide was observed within the nuclei of cells. This distribution was sustained for 24-48 hours and diminished by over 50% by 72 hours post-treatment.
# To highlight the position of the nucleus, H9 and MT-2 cells treated with the FTIC-tagged peptide of the amino acid sequence SEQ ID NO:2 as described above, fixed with 2% paraformaldehyde, permeabilized with 0.4% Triton X-100 and stained with the DNA selective stain 4′,6-diamidino-2-phenylindole (DAPI).
# [4] = tested on: HIV-1NL4-3 Viruses; experiment: Viral infectivity assay in peripheral blood mononuclear cells, p24 Gag ELISA; type: cell-based; conditions: PBMCs infected with HIV-1NL4-3, MOI 0.1; p24 antigen level by ELISA
# Procedure: Various truncated analogues of the peptide of amino acid sequence SEQ ID NO:36 were prepared to determine the minimal peptide necessary to inhibit viral infectivity. The compounds were tested in a viral infectivity assay in which PBMCs were infected with HIV-1NLA-3 viruses (MOI: 0.1). The amounts of virus produced were monitored by detecting the HIV-1 p24 antigen. level in the cell culture using p24 Gag ELISA (Zeptometrics).
# [5] = Physicochemical properties of the peptide (isoelectric point, solubility)
# [6] = living H9 and MT-2 cells, single treatment
substance,measurement,setting,value
YGRKKRRQRRRGSNQGGSPLPRSV [SEQ ID NO:36],effect on viral replication (HIV-1 p24 antigen in supernatant),[1],inhibited viral replication
same,effect on virus production (in words),"[2]; MOI 0.003, peptide 50 μM",did not appear to have any effect upon virus production
same,delay of the onset of virus production,"[2]; MOI 0.01, peptide 50 μM",3 to 4 days
same,delay of the onset of virus production,"[2]; MOI 0.03, peptide 50 μM",2 to 3 days
same,delay of the onset of virus production,"[2]; MOI 0.1, peptide 50 μM",4 to 5 days
FTIC-tagged peptide of the amino acid sequence SEQ ID NO:2: peptide of amino acid sequence SEQ ID NO:2 synthesized with a C-terminal fluoroscein isothiocyanate (FTIC) tag (YGRKKRRQRRRGQGGSPLPRSV-{FITC′}),"intracellular localization (fixed cells, DAPI nuclear stain)","[3]; H9 and MT-2 cells, 24 h after a single treatment",localized in the cytoplasm but was not present in the nucleus
same,diminution of intracellular peptide distribution,[3]; by 72 hours post-treatment,over 50%
same,time after which fluorescence within cells was detected,[3]; [6],5 ninutes
same,time for which the intracellular distribution was sustained,[3]; [6],24 to 48 h
same,time until intracellular localization was apparent in all cells,[3]; [6],≤ 30 min
same,peptide observed within the nuclei of cells,"[3]; living H9 and MT-2 cells, distribution punctate and diffuse in the cytoplasm",little or no
YGRKKRRQRRRGGGSPLPRSV [SEQ ID NO: 74],Activity (inhibiting HIV-1NL4-3 viruses in viral infectivity assay),[4],Inactive
YGRKKRRQRRRGSNQGGSPLPRS [SEQ ID NO: 75],Activity (inhibiting HIV-1NL4-3 viruses in viral infectivity assay),[4],Inactive
YGRKKRRQRRRGDLGEQHFKGLVL [SEQ ID NO:35],effect on virus production (in words),"[2]; MOI 0.003, peptide 50 μM",somewhat enhance virus production
same,effect on virus production (in words),"[2]; MOI 0.01, peptide 50 μM",did not inhibit virus production
same,effect on virus production (in words),"[2]; MOI 0.03, peptide 50 μM",did not inhibit virus production
same,effect on virus production (in words),"[2]; MOI 0.1, peptide 50 μM",did not inhibit virus production
YGRKKRRQRRRGQGGSPLPRSV [SEQ ID NO:2],isoelectric point (pI),[5],12.39
same,solubility,[5],~1 mg/mL
